According to ChEMBL document CHEMBL5665443, “Enzyme Inhibitor Single Concentration assay results for EUbOPEN Chemogenomics Library” (2024):

Legend:
Settings in all cases: Hit No
[1] = biological target: Endonuclease 8-like 1 (Homo sapiens) (UniProt Q96FI4);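 further: fluorescence at 594 nm from quenched duplex DNA oligonucleotides released by NEIL1 cleavage and strand separation, reported as reduction of this enzyme activity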
Description: Inhibition of NEIL1 by quantifying inhibition of NEIL1-mediated cleavage and dissociation of quenched duplex DNA oligonucleotides, measured as fluorescence at 594 nm.

[2] = biological target: T1, Single-strand selective monofunctional uracil DNA glycosylase (Homo sapiens) (UniProt Q53HV7);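 further: enzymatic SMUG1 assay coupled with APE1, reading fluorescence at 594 nm released when a quenched double-stranded DNA oligonucleotide substrate is cleaved and separated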
T1 sequence (whole entry): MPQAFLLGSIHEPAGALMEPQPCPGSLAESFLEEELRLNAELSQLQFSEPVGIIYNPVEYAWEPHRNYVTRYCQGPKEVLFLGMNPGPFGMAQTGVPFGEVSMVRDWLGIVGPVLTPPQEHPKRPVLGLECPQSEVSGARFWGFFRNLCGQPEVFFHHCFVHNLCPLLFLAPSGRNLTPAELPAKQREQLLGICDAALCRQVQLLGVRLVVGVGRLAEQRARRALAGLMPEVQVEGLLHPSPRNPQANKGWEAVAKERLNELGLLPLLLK
Description: Inhibition of SMUG1 by quantifying inhibition of SMUG1-mediated cleavage and dissociation of quenched duplex DNA oligonucleotides, measured as fluorescence at 594 nm. To generate a functional strand incision and increase turn-over this assay is coupled to APE1.

[3] = biological target: Methyl-CpG-binding domain protein 4 (Homo sapiens) (UniProt O95243);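 further: MBD4 activity read as fluorescence at 594 nm from cleavage and release of a quenched duplex DNA oligonucleotide, with APE1 coupled to incise the strand and raise turnover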
Description: Inhibition of MBD4 by quantifying inhibition of MBD4-mediated cleavage and dissociation of quenched duplex DNA oligonucleotides, measured as fluorescence at 594 nm. To generate a functional strand incision and increase turn-over this assay is coupled to APE1.

[4] = biological target: G/T mismatch-specific thymine DNA glycosylase (Homo sapiens) (UniProt Q13569);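 further: human TDG cleavage of quenched duplex DNA oligonucleotides coupled to APE1, strand release read as fluorescence at 594 nm, inhibition of TDG activity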
Description: Inhibition of TDG by quantifying inhibition of TDG-mediated cleavage and dissociation of quenched duplex DNA oligonucleotides, measured as fluorescence at 594 nm. To generate a functional strand incision and increase turn-over this assay is coupled to APE1.

[5] = biological target: T2, Endonuclease 8-like 2 (Homo sapiens) (UniProt Q969S2);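 further: fluorescence at 594 nm reports NEIL2 cutting and release of a quenched double-stranded DNA oligo substrate, reduced signal read as inhibition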
T2 sequence (whole entry): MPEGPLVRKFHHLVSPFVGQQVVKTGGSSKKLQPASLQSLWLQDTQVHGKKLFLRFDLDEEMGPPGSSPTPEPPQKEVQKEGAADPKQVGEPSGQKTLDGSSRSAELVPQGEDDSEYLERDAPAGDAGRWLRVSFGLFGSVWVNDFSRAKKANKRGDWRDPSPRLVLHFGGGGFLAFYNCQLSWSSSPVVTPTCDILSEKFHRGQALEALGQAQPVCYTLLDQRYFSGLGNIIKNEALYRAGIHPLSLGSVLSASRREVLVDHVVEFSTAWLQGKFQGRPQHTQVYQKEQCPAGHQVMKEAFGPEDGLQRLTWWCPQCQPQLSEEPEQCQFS
Description: Inhibition of NEIL2 by quantifying inhibition of NEIL2-mediated cleavage and dissociation of quenched duplex DNA oligonucleotides, measured as fluorescence at 594 nm.

[6] = biological target: N-glycosylase/DNA lyase (Homo sapiens) (UniProt O15527);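 further: OGG1 cleavage of a quenched duplex DNA oligonucleotide, coupled to APE1 for strand incision, read as fluorescence at 594 nm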
Description: Inhibition of OGG1 by quantifying inhibition of OGG1-mediated cleavage and dissociation of quenched duplex DNA oligonucleotides, measured as fluorescence at 594 nm. To generate a functional strand incision and increase turn-over this assay is coupled to APE1.

[7] = biological target: T3, Adenine DNA glycosylase (Homo sapiens) (UniProt Q9UIF7);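 further: human MUTYH activity read as 594 nm fluorescence from cleavage and release of a quenched DNA duplex, coupled with APE1 for strand incision, lower signal meaning inhibition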
T3 sequence (whole entry): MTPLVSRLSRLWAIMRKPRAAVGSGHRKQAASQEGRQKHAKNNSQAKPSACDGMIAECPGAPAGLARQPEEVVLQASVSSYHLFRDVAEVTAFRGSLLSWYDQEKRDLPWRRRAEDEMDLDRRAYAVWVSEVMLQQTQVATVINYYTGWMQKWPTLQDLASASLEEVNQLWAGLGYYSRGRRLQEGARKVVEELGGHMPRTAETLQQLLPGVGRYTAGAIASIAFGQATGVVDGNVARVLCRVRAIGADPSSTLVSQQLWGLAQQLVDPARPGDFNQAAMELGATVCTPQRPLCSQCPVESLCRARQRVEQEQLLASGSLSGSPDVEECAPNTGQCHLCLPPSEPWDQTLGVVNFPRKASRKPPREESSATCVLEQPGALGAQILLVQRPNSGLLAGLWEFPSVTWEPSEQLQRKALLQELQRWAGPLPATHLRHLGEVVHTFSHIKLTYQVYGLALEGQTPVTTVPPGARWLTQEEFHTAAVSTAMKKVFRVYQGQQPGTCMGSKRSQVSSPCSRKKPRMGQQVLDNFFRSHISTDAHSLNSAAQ
Description: Inhibition of MUTYH by quantifying inhibition of MUTYH-mediated cleavage and dissociation of quenched duplex DNA oligonucleotides, measured as fluorescence at 594 nm. To generate a functional strand incision and increase turn-over this assay is coupled to APE1.

[8] = biological target: Uracil-DNA glycosylase (Homo sapiens) (UniProt P13051);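 further: UNG excision on a quenched double-stranded DNA oligo probe, with APE1 added for strand incision and turnover, read as fluorescence at 594 nm as strands separate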
Sequence of Uracil-DNA glycosylase (Homo sapiens) (P13051 whole entry): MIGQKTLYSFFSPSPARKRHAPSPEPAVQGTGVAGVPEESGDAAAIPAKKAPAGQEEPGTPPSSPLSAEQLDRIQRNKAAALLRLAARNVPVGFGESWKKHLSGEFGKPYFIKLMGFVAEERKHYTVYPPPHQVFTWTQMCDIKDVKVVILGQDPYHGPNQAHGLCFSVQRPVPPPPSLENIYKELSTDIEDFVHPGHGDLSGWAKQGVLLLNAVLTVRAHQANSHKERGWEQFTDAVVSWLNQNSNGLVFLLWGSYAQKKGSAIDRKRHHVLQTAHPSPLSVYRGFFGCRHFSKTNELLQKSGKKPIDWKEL
Description: Inhibition of UNG by quantifying inhibition of UNG-mediated cleavage and dissociation of quenched duplex DNA oligonucleotides, measured as fluorescence at 594 nm. To generate a functional strand incision and increase turn-over this assay is coupled to APE1.

Sequence of G/T mismatch-specific thymine DNA glycosylase (Homo sapiens) (Q13569 whole entry): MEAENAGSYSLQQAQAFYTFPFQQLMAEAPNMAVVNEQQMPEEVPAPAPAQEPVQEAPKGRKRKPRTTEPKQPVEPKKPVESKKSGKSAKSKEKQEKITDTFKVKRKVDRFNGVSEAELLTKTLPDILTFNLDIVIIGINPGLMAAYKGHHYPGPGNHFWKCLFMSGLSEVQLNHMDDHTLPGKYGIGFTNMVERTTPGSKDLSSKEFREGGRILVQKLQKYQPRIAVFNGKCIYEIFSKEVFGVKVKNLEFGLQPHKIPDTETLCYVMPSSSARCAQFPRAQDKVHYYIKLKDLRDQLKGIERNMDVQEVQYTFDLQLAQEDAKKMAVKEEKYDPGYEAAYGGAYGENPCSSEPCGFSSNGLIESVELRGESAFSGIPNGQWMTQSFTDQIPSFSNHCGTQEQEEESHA
Sequence of Endonuclease 8-like 1 (Homo sapiens) (Q96FI4 whole entry): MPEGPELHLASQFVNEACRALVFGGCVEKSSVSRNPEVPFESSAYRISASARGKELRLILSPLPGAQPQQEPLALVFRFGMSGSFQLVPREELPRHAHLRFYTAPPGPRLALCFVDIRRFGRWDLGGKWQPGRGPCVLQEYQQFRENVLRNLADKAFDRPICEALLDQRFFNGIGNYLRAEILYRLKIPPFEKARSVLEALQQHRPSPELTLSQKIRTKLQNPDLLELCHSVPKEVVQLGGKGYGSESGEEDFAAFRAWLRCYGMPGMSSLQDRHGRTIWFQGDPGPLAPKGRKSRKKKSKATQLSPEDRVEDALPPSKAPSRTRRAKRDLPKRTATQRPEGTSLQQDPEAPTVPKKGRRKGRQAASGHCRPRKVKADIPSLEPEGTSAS
Sequence of N-glycosylase/DNA lyase (Homo sapiens) (O15527 whole entry): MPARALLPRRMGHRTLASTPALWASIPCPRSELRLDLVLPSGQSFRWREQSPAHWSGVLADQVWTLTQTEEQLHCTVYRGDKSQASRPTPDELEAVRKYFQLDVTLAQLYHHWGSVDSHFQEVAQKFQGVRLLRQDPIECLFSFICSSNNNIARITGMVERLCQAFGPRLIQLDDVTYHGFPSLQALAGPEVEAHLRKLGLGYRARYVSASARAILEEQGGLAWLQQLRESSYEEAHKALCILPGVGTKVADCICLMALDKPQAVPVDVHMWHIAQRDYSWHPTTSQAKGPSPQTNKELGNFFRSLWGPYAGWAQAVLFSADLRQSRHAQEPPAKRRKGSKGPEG
Sequence of Methyl-CpG-binding domain protein 4 (Homo sapiens) (O95243 whole entry, the tested form may be a part): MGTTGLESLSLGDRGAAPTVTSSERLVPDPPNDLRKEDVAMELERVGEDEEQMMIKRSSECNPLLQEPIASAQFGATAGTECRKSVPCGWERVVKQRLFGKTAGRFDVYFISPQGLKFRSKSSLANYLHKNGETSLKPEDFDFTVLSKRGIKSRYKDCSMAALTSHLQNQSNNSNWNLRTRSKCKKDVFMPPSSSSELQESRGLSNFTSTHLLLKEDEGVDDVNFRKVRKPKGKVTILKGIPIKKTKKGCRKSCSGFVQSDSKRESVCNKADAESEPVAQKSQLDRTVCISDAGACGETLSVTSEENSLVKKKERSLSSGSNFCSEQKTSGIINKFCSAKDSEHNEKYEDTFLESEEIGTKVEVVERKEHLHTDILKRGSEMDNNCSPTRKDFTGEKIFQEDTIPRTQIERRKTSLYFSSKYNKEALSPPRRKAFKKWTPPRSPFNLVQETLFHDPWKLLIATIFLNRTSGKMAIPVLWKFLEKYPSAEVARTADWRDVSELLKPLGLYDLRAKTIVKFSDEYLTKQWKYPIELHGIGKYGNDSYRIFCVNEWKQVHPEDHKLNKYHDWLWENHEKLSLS

SMILES | inhibition ([1]; Compound Concentration 1.0 uM) [%] | inhibition ([2]; Compound Concentration 1.0 uM) [%] | inhibition ([3]; Compound Concentration 1.0 uM) [%] | inhibition ([4]; Compound Concentration 1.0 uM) [%] | inhibition ([5]; Compound Concentration 1.0 uM) [%] | inhibition ([6]; Compound Concentration 1.0 uM) [%] | inhibition ([7]; Compound Concentration 1.0 uM) [%] | inhibition ([8]; Compound Concentration 1.0 uM) [%] | inhibition ([1]; Compound Concentration 10.0 uM) [%] | inhibition ([2]; Compound Concentration 10.0 uM) [%] | inhibition ([3]; Compound Concentration 10.0 uM) [%] | inhibition ([4]; Compound Concentration 10.0 uM) [%] | inhibition ([5]; Compound Concentration 10.0 uM) [%] | inhibition ([6]; Compound Concentration 10.0 uM) [%] | inhibition ([7]; Compound Concentration 10.0 uM) [%] | inhibition ([8]; Compound Concentration 10.0 uM) [%]
COc1cc2ncn(-c3cc(OCc4ccccc4C(F)(F)F)c(C(N)=O)s3)c2cc1OC | -7 | 10.2 | 6.17 | 35.1 | -8.65 | 0.727 | -6.25 | 3.27 |  |  |  |  |  |  |  | 
N[C@@H]1CCCN(c2c(/C=C3\SC(=O)NC3=O)cccc2-c2ccccc2)C1 | -5.54 | 28.4 | 5.7 | 64.1 | 1.04 | 16.9 | 3.22 | 7.16 |  |  |  |  |  |  |  | 
Cc1cc(-c2ccnc(Nc3cnn(C)c3)n2)ccc1CNC(=O)N1CC(OC(C)C)C1 |  |  |  |  |  |  |  |  | -3.03 | 28.1 | 12.6 | 44.6 | -6.23 | 9.56 | 22.5 | 4.16
O=C(NNS(=O)(=O)c1ccccc1)c1cc(-c2ccnnc2)ccc1F |  |  |  |  |  |  |  |  | -4.38 | 13.8 | 88.3 | 49.7 | 5.38 | 8.54 | 0.332 | 6.08
O=C(Cc1ccccc1)Nc1nnc(N2CC[C@@H]3[C@H]2CN3c2cccnn2)s1 | 0.316 | 9.42 | 66 | 43.7 | -8.65 | 3.62 | 7.76 | 9.87 |  |  |  |  |  |  |  | 
N#CN1CC[C@@H](C(=O)Nc2nc3c(s2)CN(C(=O)CN=[N+]=[N-])CC3)C1 |  |  |  |  |  |  |  |  | 6.22 | 2.3 | 54.3 | 50.9 | -7.63 | 3.62 | -2.56 | 4.95
O=C(Nc1nc2cccc(-c3ccc(CN4CCS(=O)(=O)CC4)cc3)n2n1)C1CC1 |  |  |  |  |  |  |  |  | -4.22 | 27.3 | -0.894 | 66.4 | -1.92 | 1.15 | 3.59 | 2.98
CC[C@H](CO)Nc1nc(NCc2ccccc2)c2ncn(C(C)C)c2n1 |  |  |  |  |  |  |  |  | 6.48 | -5.13 | -1.52 | 38.4 | -5.42 | -9.3 | -2.91 | 0.726
COc1cc(Nc2ncc3c(n2)-c2ccc(Cl)cc2C(c2c(F)cccc2OC)=NC3)ccc1C(=O)O | -3.03 | 19.5 | 19.9 | 47.7 | -9.46 | 4.44 | -7.52 | -1.28 |  |  |  |  |  |  |  | 
CC(C)c1c(CN(C)C(C)Cc2ccccc2)n(C)n(-c2ccccc2)c1=O (configuration not stated) |  |  |  |  |  |  |  |  | 0.921 | 23.9 | 64.9 | 100 | -4.57 | 21.4 | 11 | 1.7
NS(=O)(=O)c1cc(NC(=O)Cc2ccccc2)ccc1Oc1cccc(Cl)c1 |  |  |  |  |  |  |  |  | -8.47 | 25.9 | 54.5 | 87.5 | -2.53 | 16.9 | -0.214 | 6.44
CC1CCN(c2ccnc(NCc3cn(C)cn3)n2)CC1 |  |  |  |  |  |  |  |  | 1.98 | 15.3 | 67.6 | 50.4 | 3.08 | 19.9 | 19.8 | 5.91
Cc1nc(C#Cc2cccnc2)cs1 |  |  |  |  |  |  |  |  | 1.49 | -8.43 | -0.814 | 4.62 | -1.88 | -7.91 | 5.76 | -6.91
NC1(c2ccc(-c3nc4ccn5c(=O)[nH]nc5c4cc3-c3ccccc3)cc2)CCC1 |  |  |  |  |  |  |  |  | 17.6 | 29.1 | 37.9 | 71.2 | -9.46 | 10.8 | 56.1 | 17.3
O=C(Nc1ccc(C(O)(C(F)(F)F)C(F)(F)F)cc1)c1ccc(C(F)(F)F)cc1 |  |  |  |  |  |  |  |  | -5.59 | 23.5 | 54.8 | 98 | -7.89 | 30.3 | 3.77 | 11.1
CC(=O)c1c(C)c2cnc(Nc3ccc(N4CCNCC4)cn3)nc2n(C2CCCC2)c1=O | 8.59 | 19.2 | -1.7 | 39.5 | 2.12 | 4.49 | 37.5 | 3.08 |  |  |  |  |  |  |  | 
Nc1nc(NCc2ccccc2)nc(-c2ccccc2CO)n1 |  |  |  |  |  |  |  |  | -7.11 | -2.01 | 61.2 | 52 | 5.12 | 4.21 | -3 | 2.12
O=C(NC[C@@H]1[C@H]2CN(C(=O)OCc3cc(C(F)(F)F)cc(C(F)(F)F)c3)C[C@@H]12)c1ccc2[nH]nnc2c1 |  |  |  |  |  |  |  |  | -8.32 | 8.85 | 48.7 | 43.8 | -6.36 | 19.9 | -6.99 | -1.24
O=C(c1cc2c(cc1F)OC(c1ccc(F)cc1)(c1ccc(Cl)cc1Cl)O2)N1CCOCC1 (configuration not stated) |  |  |  |  |  |  |  |  | 3.95 | 5.83 | -9.38 | 17.8 | 8.5 | -5.3 | 25.5 | -5.46
